Format in all cases: cell-based
Assay [1] deals with HT1080 (human fibrosarcoma cell line). In words: RT-CES system cell proliferation/cytotoxicity IC50, HT1080. The following applies: HT-1080, time point of maximum inhibition. From the text:
(§1) The RT-CES system comprises three components, an electronic sensor analyzer, a device station and 16× or 96× microtiter plate devices. Microelectrode sensor array was fabricated on glass slides with lithographical microfabrication methods and the electrode-containing slides are assembled to plastic trays to form electrode-containing wells. Each 16× (or 96×) microtiter plate device used in RT-CES system comprises up to 16 (or 96) such electrode-containing wells. The device station receives the 16× or 96× microtiter plate devices and is capable of electronically switching any one of the wells to the sensor analyzer for impedance measurement. In operation, the devices with cells cultured in the wells are placed into a device station that is located inside an incubator. Electrical cables connect the device station to the sensor analyzer. Under the RT-CES software control, the sensor analyzer can automatically select wells to be measured and continuously conduct impedance measurements. The impedance data from the analyzer is transferred to a computer, analyzed and processed by the integrated software.
(§2) To quantify cell status based on the measured cell-electrode impedance, a parameter termed Cell Index is derived, according to
(§3) [formula] where Rb(f) and Rcell(f) are the frequency dependent electrode resistances (a component of impedance) without cells or with cell present, respectively. N is the number of the frequency points at which the impedance is measured. Thus, Cell Index is a quantitative measure of the status of the cells in an electrode-containing well. Under the same physiological conditions, more cells attached on to the electrodes leads to larger Rcell(f) value, leading to a larger value for Cell Index. Furthermore, for the same number of cells present in the well, a change in the cell status such as morphology will lead to a change in the Cell Index. For example, an increase in cell adhesion or cell spreading leads to larger cell-electrode contact area which will lead to an increase in Rcell(f) and thus a larger value for Cell Index. The Cell Index may also be calculated using a formula different from the one described here. Other methods for calculating the Cell Index based on impedance measurement can be found in PCT application number PCT/US04/37696, fined on Nov. 12, 2004, PCT application number PCT/US05/04481, filed on Feb. 9, 2005, U.S. patent application Ser. No. 10/987,732, filed on Nov. 12, 2004, and U.S. patent application Ser. No. 11/055,639, filed on Feb. 9, 2005.
HT1080 cells (human fibrosarcoma cells) were seeded into wells of 16× or 96× microtiter plate devices (electronic plates, i.e., the plates comprise microelectrode sensor arrays in the wells of the plate) with an initial seeding density of 4,000 cells per well and were pre-incubated in incubator under standard cell culture conditions for about 18.6 hrs. Dibenzyl trisulfide solution in DMSO was added into wells following the incubation period. The cell status was monitored prior to and after the compound addition using RT-CES system. The cell indexes of different wells were between 0.72 and 1.45 just before the compound addition. […] The cell index was normalized against the cell index values at a time point just after compound addition (about 20 hrs after cell seeding).
For the assay performed on the RT-CES system, the cells were seeded into the 16× or 96× microtiter plate devices (electronic plates, i.e., the plates comprise microelectrode sensor arrays in the wells of the plate) at the seeding density ranging from 5000 cells/well to 15,000 cells/well. The cells were incubated at 5% CO2 and 37° C. for overnight till the cell indices reached the growth phase where the cell index was between 0.8 and 1.2. Serially diluted compounds were then added to the cells followed by dynamic monitoring of the effect of the compounds on the cell proliferation and cytotoxicity. […]

Assay [2] concerns Jurkat (human T cell leukemia cell line). Put plainly: MTT assay IC50 (48 h), Jurkat. On the procedure:
(§4) In another assay format, a test compound is assayed for its cytotoxicity and/or cytostatic effect on certain cancer cell types, using endpoint assay methods. Cells in the NCI cancer cell panel may be used. Cells after a pre-incubation for certain length of time (for example, 8 hrs or 24 hrs) are incubated with a test compound at serially-diluted concentrations (for example, five 10-fold dilutions) for 24 hrs and/or 48 hrs, and/or other specific length of time. The dose dependent cytotoxicity and/or cytostatic effects of test compounds can then be tested and evaluated using the 3-(4,5-dimethylthiazol-2-yl)-2,5-diphenyltetrazolium bromide (MTT) assay method, as described by, for example, Boyd (In Principle of Practice of Oncology, Devita, J. T., Hellman, S. and Rosenberg S. A. (Eds), 1989, Vol, 3, PPO Update, No. 10).
(§5) The anticancer potency of DBTS and its derivatives were tested in 8 different types of human cancer cell lines using the RT-CES system and MTT assay. The 8 cancer cell lines were HT1080 (the human fibrosarcoma cell line), H460 (human non small cell lung cancer cell line), OVCAR4 (the human ovarian cancer cell line), MCF7 (human breast cancer cell line) MDA-MB231 (M231, the human breast cancer cell line) A2780 (the human […] cancer cell line) Jurkat (the human T cell leukemia cell line). The test DBTS derivatives include ACEA100107, ACEA100108, ACEA100109, ACEA100111, ACEA100115, ACEA100116, ACEA100117, ACEA100118, ACEA100119, and ACEA100120.
(§6) For the MTT assay, the cells were seeded into the regular 96× well plates at the cell seeding density ranging from 5000 cells/well to 15,000 cells/well. The cells were incubated at 5% CO2 and 37° C. for overnight. The derivatives were serially diluted and added to the cells. The treatment was terminated after 48 hours of incubation by adding MTT staining reagent. After 4 hours, the staining was stopped by the stop buffer and then the calorimetric measurement was carried out on a microtiter plate reader at dual wave length, 650 nm and 550 nm.

In assay [3] the test system is HT1080 (human fibrosarcoma cell line). In words: MTT assay IC50 (48 h), HT1080. The following applies: HT-1080, HT1080, 48 hours. On the procedure: as §4, §5, §6
The test system of assay [4] is MDA-MB231 (M231, human breast cancer cell line). In words: RT-CES system cell proliferation/cytotoxicity IC50, MDA-MB231. The following applies: MDA-MB-231, time point of maximum inhibition.
Excerpt: as §1, §2, §3
Dibenzyl trisulfide solution in DMSO was added into wells following the incubation period. The cell status was monitored prior to and after the compound addition using RT-CES system. The cell indexes of different wells were between 0.65 and 0.82 just before the compound addition. […] The cell index was normalized against the cell index values at a time point just after compound addition (about 19.6 hrs after cell seeding).
For the assay performed on the RT-CES system, the cells were seeded into the 16× or 96× microtiter plate devices (electronic plates, i.e., the plates comprise microelectrode sensor arrays in the wells of the plate) at the seeding density ranging from 5000 cells/well to 15,000 cells/well. The cells were incubated at 5% CO2 and 37° C. for overnight till the cell indices reached the growth phase where the cell index was between 0.8 and 1.2. Serially diluted compounds were then added to the cells followed by dynamic monitoring of the effect of the compounds on the cell proliferation and cytotoxicity. The time-dependent IC50 values for each derivative were calculated based the dose responses of cell index value at different time points after compound treatment.
The anticancer potency of a DBTS derivative, ACEA100108 was tested in 7 cancer cell lines on the […]. The cell lines were HT1080, H460, OVCAR4, MCF7, MDA-MB231, HepG2, and A2780. […]

As for `Clc1ccc(CSSSCc2ccc(Cl)cc2)cc1` [ACEA100118, Di(p-chlorobenzyl)trisulfide], the IC50 in assay [1] was 1.2 µM; in assay [2] it was 500 nM; in assay [3] it was 1150 nM; in assay [4] it was 2.3 µM.
Taken in the same sequence, the figures for `c1ccc(CSSSCc2ccccc2)cc1` [DBTS, Dibenzyl trisulfide] were 2.2 µM, 350 nM, 2550 nM and 2.4 µM.
Taken in the same sequence, the figures for `Fc1ccc(CSSSCc2ccc(F)cc2)cc1` [ACEA100108, Di(p-fluorobenzyl)trisulfide] were 1.3 µM, 350 nM, 19000 nM and 3.05 µM.
On the same counts, the results for `Cc1cccc(CSSSCc2cccc(C)c2)c1` [ACEA100116, di(m-methylbenzyl)trisulfide] are 1.9 µM, 300 nM, 2200 nM and 1.06 µM.
As to `FC(F)(F)c1cccc(CSSSCc2cccc(C(F)(F)F)c2)c1` [ACEA100117, Di(m-trifluoromethylbenzyl)trisulfide], the half-maximal inhibitory concentration (IC50) in assay [1] worked out at 27.5 µM; in assay [2], 8000 nM; in assay [3] it was 47500 nM; in assay [4], 41 µM.
`Clc1ccccc1CSSSCc1ccccc1Cl` [ACEA100115, Di(o-chlorobenzyl)trisulfide]: the IC50 in assay [1] stood at 2.2 µM; in assay [2], 510 nM; in assay [3], 12400 nM; in assay [4], 1.06 µM.
